Experimental data as given in patent publication US20100048950A1 (BOEHRINGER INGELHEIM INTERNATIONAL GMBH, priority 2007, published 2010).

The molecules below were run against T1, human glucocorticoid receptor (GR) complex (Homo sapiens, UniProt P04150) (assay: Glucocorticoid receptor competitive binding assay (fluorescence polarization)). Conditions: competition with TAMRA-labeled dexamethasone, read-out: potent activity (IC50) in the GR binding assay.
T1 construct: made in house; host or cells: insect expression system (baculovirus lysate)
T1 sequence (P04150 1-777): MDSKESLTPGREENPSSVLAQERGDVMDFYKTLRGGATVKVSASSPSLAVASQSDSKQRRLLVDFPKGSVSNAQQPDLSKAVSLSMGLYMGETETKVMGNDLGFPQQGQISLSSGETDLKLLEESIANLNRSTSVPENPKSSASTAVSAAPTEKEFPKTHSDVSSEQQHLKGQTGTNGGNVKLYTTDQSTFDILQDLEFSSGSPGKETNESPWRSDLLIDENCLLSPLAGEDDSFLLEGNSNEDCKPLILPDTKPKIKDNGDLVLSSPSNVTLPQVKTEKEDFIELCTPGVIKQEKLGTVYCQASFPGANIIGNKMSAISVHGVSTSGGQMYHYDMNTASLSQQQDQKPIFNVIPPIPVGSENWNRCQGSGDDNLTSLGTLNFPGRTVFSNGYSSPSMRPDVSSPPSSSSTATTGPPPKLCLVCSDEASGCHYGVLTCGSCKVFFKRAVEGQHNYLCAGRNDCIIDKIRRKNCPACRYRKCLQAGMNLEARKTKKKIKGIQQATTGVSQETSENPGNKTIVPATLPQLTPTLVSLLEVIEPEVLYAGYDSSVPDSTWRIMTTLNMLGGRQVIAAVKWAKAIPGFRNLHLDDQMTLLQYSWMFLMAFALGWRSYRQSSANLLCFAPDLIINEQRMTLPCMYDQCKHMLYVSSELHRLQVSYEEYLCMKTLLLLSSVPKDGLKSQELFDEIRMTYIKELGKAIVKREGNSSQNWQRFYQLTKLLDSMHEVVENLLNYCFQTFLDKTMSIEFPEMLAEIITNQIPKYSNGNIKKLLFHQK
Procedure: Compounds of the invention were evaluated for binding to the steroid receptor by a fluorescence polarization competitive binding assay. Detailed descriptions for preparation of recombinant glucocorticoid receptor (GR) complex used in the assay is described in U.S. Patent Application Publication No. US 2003/0017503, filed May 20, 2002, and incorporated herein by reference in its entirety. Preparation of the tetramethylrhodamine (TAMRA)-labeled dexamethasone probe was accomplished using a standard literature procedure (M. Pons et al., J. Steroid Biochem., 1985, 22, pp. 267-273).
The affinity of the probe for the steroid receptor was then determined in a titration experiment. The fluorescence polarization value of the probe in assay buffer was measured on an SLM-8100 fluorometer using the excitation and emission maximum values described above. Aliquots of expression vector lysate were added and fluorescence polarization was measured after each addition until no further change in polarization value was observed. Non-linear least squares regression analysis was used to calculate the dissociation constant of the probe from the polarization values obtained for lysate binding to the probe.
This assay uses fluorescence polarization (FP) to quantitate the ability of test compounds to compete with tetramethylrhodamine (TAMRA)-labeled dexamethasone for binding to a human glucocorticoid receptor (GR) complex prepared from an insect expression system. The assay buffer was: 10 mM TES, 50 mM KCl, 20 mM Na2MoO4.2H2O, 1.5 mM EDTA, 0.04% w/v CHAPS, 10% v/v glycerol, 1 mM dithiothreitol, pH 7.4. Test compounds were dissolved to 1 mM in neat DMSO and then further diluted to 10× assay concentration in assay buffer supplemented with 10% v/v DMSO. Test compounds were serially diluted at 10× assay concentrations in 10% DMSO-containing buffer in 96-well polypropylene plates. Binding reaction mixtures were prepared in 96-well black Dynex microtiter plates by sequential addition of the following assay components to each well: 15 μL of 10× test compound solution, 85 μL of GR-containing baculovirus lysate diluted 1:170 in assay buffer, and 50 μL of 15 nM TAMRA-labeled dexamethasone. Positive controls were reaction mixtures containing no test compound; negative controls (blanks) were reaction mixtures containing 0.7 μM to 2 μM dexamethasone. The binding reactions were incubated for 1 hour at room temperature and then read for fluorescence polarization in the LJL Analyst set to 550 nm excitation and 580 nm emission, with the Rhodamine 561 dichroic mirror installed. IC50 values were determined by iterative non-linear curve fitting of the FP signal data to a 4-parameter logistic equation.

Row | IC50 | SMILES
1 | ≤ 0.1 µM | Cc1cc(C)c(S(=O)(=O)NC(COc2cccc3ccccc23)C(F)(F)F)c(C)c1 (stereo not shown) [2,4,6-Trimethyl-N-[2,2,2-trifluoro-1-(naphthalen-1-yloxymethyl)ethyl]benzenesulfonamide]
2 | ≤ 0.1 µM | Cc1ccc(NCC(NS(=O)(=O)c2c(C)cc(C)cc2C)C(F)(F)F)cc1 (stereo not shown) [2,4,6-Trimethyl-N-[2,2,2-trifluoro-1-(p-tolylaminomethyl)ethyl]benzenesulfonamide]
3 | ≤ 0.1 µM | Cc1cc(C)c(S(=O)(=O)NC(CNc2c(Cl)cc(Cl)cc2Cl)C(F)(F)F)c(C)c1 (stereo not shown) [2,4,6-Trimethyl-N-{2,2,2-trifluoro-1-[(2,4,6-trichlorophenylamino)methyl]ethyl}benzenesulfonamide]
4 | ≤ 0.1 µM | Cc1cc(C)c(S(=O)(=O)NC(CNc2c(F)cc(F)cc2F)C(F)(F)F)c(C)c1 (stereo not shown) [2,4,6-Trimethyl-N-{2,2,2-trifluoro-1-[(2,4,6-trifluorophenylamino)methyl]ethyl}benzenesulfonamide]
5 | ≤ 0.1 µM | Cc1cc(C)c(S(=O)(=O)NC(CNc2ccc(C)cc2F)C(F)(F)F)c(C)c1 (stereo not shown) [2,4,6-Trimethyl-N-{2,2,2-trifluoro-1-[(2-fluoro-4-methylphenylamino)methyl]ethyl}benzenesulfonamide]
6 | ≤ 0.1 µM | COc1ccc(C(F)(F)F)cc1NCC(NS(=O)(=O)c1c(C)cc(C)cc1C)C(F)(F)F (stereo not shown) [2,4,6-Trimethyl-N-{2,2,2-trifluoro-1-[(2-methoxy-5-trifluoromethylphenylamino)methyl]ethyl}benzenesulfonamide]
7 | ≤ 0.1 µM | Cc1cc(C)c(S(=O)(=O)NC(CNc2ccccc2OC(F)(F)F)C(F)(F)F)c(C)c1 (stereo not shown) [2,4,6-Trimethyl-N-{2,2,2-trifluoro-1-[(2-trifluoromethoxyphenylamino)methyl]ethyl}benzenesulfonamide]
8 | ≤ 0.1 µM | COc1cc(NCC(NS(=O)(=O)c2c(C)cc(C)cc2C)C(F)(F)F)cc(C(F)(F)F)c1 (stereo not shown) [2,4,6-Trimethyl-N-{2,2,2-trifluoro-1-[(3-methoxy-5-trifluoromethylphenylamino)methyl]ethyl}benzenesulfonamide]
9 | ≤ 0.1 µM | CSc1cccc(NCC(NS(=O)(=O)c2c(C)cc(C)cc2C)C(F)(F)F)c1 (stereo not shown) [2,4,6-Trimethyl-N-{2,2,2-trifluoro-1-[(3-methylsulfanylphenylamino)methyl]ethyl}benzenesulfonamide]
10 | ≤ 0.1 µM | Cc1cc(C)c(S(=O)(=O)NC(CNc2cccc(-c3cnco3)c2)C(F)(F)F)c(C)c1 (stereo not shown) [2,4,6-Trimethyl-N-{2,2,2-trifluoro-1-[(3-oxazol-5-ylphenylamino)methyl]ethyl}benzenesulfonamide]
11 | ≤ 0.1 µM | Cc1cc(C)c(S(=O)(=O)NC(CNc2cccc(C(F)(F)F)c2)C(F)(F)F)c(C)c1 (stereo not shown) [2,4,6-Trimethyl-N-{2,2,2-trifluoro-1-[(3-trifluoromethylphenylamino)methyl]ethyl}benzenesulfonamide]
12 | ≤ 0.1 µM | COc1ccc(NCC(NS(=O)(=O)c2c(C)cc(C)cc2C)C(F)(F)F)c(C)c1 (stereo not shown) [2,4,6-Trimethyl-N-{2,2,2-trifluoro-1-[(4-methoxy-2-methylphenylamino)methyl]ethyl}benzenesulfonamide]
13 | ≤ 0.1 µM | Cc1cc(C)c(S(=O)(=O)NC(CNc2cccc3c2CCCC3)C(F)(F)F)c(C)c1 (stereo not shown) [2,4,6-Trimethyl-N-{2,2,2-trifluoro-1-[(5,6,7,8-tetrahydronaphthalen-1-ylamino)methyl]ethyl}benzenesulfonamide]
14 | ≤ 0.1 µM | Cc1cc(C)c(S(=O)(=O)NC(CN(C)c2ccccc2)C(F)(F)F)c(C)c1 (stereo not shown) [2,4,6-Trimethyl-N-{2,2,2-trifluoro-1-[(methylphenylamino)methyl]ethyl}benzenesulfonamide]
15 | ≤ 0.1 µM | CC[C@@H](CNc1cccc2ccccc12)NS(=O)(=O)c1c(C)cc(C)cc1C [2,4,6-Trimethyl-N—[(S)-1-(naphthalen-1-ylaminomethyl)propyl]benzenesulfonamide]
16 | ≤ 0.1 µM | Cc1ccc(SCC(NS(=O)(=O)c2c(N)cc(Cl)cc2Cl)C(F)(F)F)cc1 (stereo not shown) [2-Amino-4,6-dichloro-N-(2,2,2-trifluoro-1-p-tolylsulfanylmethylethyl)benzenesulfonamide]
17 | ≤ 0.1 µM | COC(=O)c1ccccc1NCC(NS(=O)(=O)c1c(C)cc(C)cc1C)C(F)(F)F (stereo not shown) [2-[3,3,3-Trifluoro-2-(2,4,6-trimethylbenzenesulfonylamino)propylamino]benzoic acid methyl ester]
18 | ≤ 0.1 µM | COC(=O)c1ccccc1SCC(NS(=O)(=O)c1c(C)cc(C)cc1C)C(F)(F)F (stereo not shown) [2-[3,3,3-Trifluoro-2-(2,4,6-trimethylbenzenesulfonylamino)propylsulfanyl]benzoic acid methyl ester]
19 | ≤ 0.1 µM | COC(=O)c1ccccc1N(C)CC(NS(=O)(=O)c1c(C)cc(C)cc1C)C(F)(F)F (stereo not shown) [2-{Methyl-[3,3,3-trifluoro-2-(2,4,6-trimethylbenzenesulfonylamino)propyl]amino}benzoic acid methyl ester]
20 | ≤ 0.1 µM | CCOC(=O)c1ccc(OCC(NS(=O)(=O)c2c(C)cc(C)cc2C)C(F)(F)F)c(OC)c1 (stereo not shown) [3-Methoxy-4-[3,3,3-trifluoro-2-(2,4,6-trimethylbenzenesulfonylamino)propoxy]benzoic acid ethyl ester]
21 | ≤ 0.1 µM | COC(=O)c1cccc(NCC(NS(=O)(=O)c2c(C)cc(C)cc2C)C(F)(F)F)c1 (stereo not shown) [3-[3,3,3-Trifluoro-2-(2,4,6-trimethylbenzenesulfonylamino)propylamino]benzoic acid methyl ester]
22 | ≤ 0.1 µM | Cc1cc(C)c(S(=O)(=O)NC(CN(CCC#N)c2ccccc2)C(F)(F)F)c(C)c1 (stereo not shown) [N-(1-{[(2-Cyanoethyl)phenylamino]methyl}-2,2,2-trifluoroethyl)-2,4,6-trimethylbenzenesulfonamide]
23 | ≤ 0.1 µM | COc1ccc(N(Cc2ccccc2)CC(NS(=O)(=O)c2c(C)cc(C)cc2C)C(F)(F)F)cc1 (stereo not shown) [N-(1-{[Benzyl-(4-methoxyphenyl)amino]methyl}-2,2,2-trifluoroethyl)-2,4,6-trimethylbenzenesulfonamide]
24 | ≤ 0.1 µM | Cc1cc(C)c(S(=O)(=O)NC(COc2ccc(Cl)cc2Cl)C(F)(F)F)c(C)c1 (stereo not shown) [N-[1-(2,4-Dichlorophenoxymethyl)-2,2,2-trifluoroethyl]-2,4,6-trimethylbenzenesulfonamide]
25 | ≤ 0.1 µM | Cc1cc(C)c(S(=O)(=O)NC(CSc2ccc(Cl)cc2Cl)C(F)(F)F)c(C)c1 (stereo not shown) [N-[1-(2,4-Dichlorophenylsulfanylmethyl)-2,2,2-trifluoroethyl]-2,4,6-trimethylbenzenesulfonamide]
26 | ≤ 0.1 µM | Cc1ccc(OCC(NS(=O)(=O)c2c(C)cc(C)cc2C)C(F)(F)F)c(C)c1 (stereo not shown) [N-[1-(2,4-Dimethylphenoxymethyl)-2,2,2-trifluoroethyl]-2,4,6-trimethylbenzenesulfonamide]
27 | ≤ 0.1 µM | Cc1ccc(SCC(NS(=O)(=O)c2c(C)cc(C)cc2C)C(F)(F)F)c(C)c1 (stereo not shown) [N-[1-(2,4-Dimethylphenylsulfanylmethyl)-2,2,2-trifluoroethyl]-2,4,6-trimethylbenzenesulfonamide]
28 | ≤ 0.1 µM | Cc1cc(C)c(S(=O)(=O)NC(CSc2cc(Cl)ccc2Cl)C(F)(F)F)c(C)c1 (stereo not shown) [N-[1-(2,5-Dichlorophenylsulfanylmethyl)-2,2,2-trifluoroethyl]-2,4,6-trimethylbenzenesulfonamide]
